Data on 14 compounds can be found in patent publication US20260199297A1, “FERROPTOSIS INDUCERS TO TREAT CANCER” (The University of Toledo, priority 2022, published 2026).

SMILES strings stand for the structures. Like-named read-outs stand apart in the source and are kept apart here.

Assay [1] deals with protein bands between 25 kD to 38 kD. Put plainly: Competitive binding assay against probe PPd (in-gel fluorescence). Particulars: 20 μM concentration; bands 25 kD to 38 kD.
Another assay relates to MDA-MB-231 cells. The experiment in a line: Cytotoxicity (methylene blue cell viability), MDA-MB-231. The class given is cell-based. Particulars: Homo sapiens. The method, then: (§1) Having synthesized the CETZOLE analogs, their cytotoxic activity was evaluated. […] NCI-H522 RV-GFP is the corresponding control with RV-GFP tag, but without SLC7A11 overexpression. […] The cytotoxicity screening was conducted as described previously.
(§2) Cell lines were cultured in a humidified atmosphere containing 10% CO2 in Dulbecco's modified Eagle's medium (Mediatech, Inc) supplemented with 10% fetal bovine serum (Atlanta Biologicals). Cell types used MEFs, HT1080 (human fibrosarcoma cells), NARF2 (osteosarcoma), WI-38 (human embryonic lung fibroblast), MDA MB 231 (breast cancer), HCT-116 (human colon), and NCI-H522 (Non-Small Cell Lung Cancer) cell lines. To determine viability throughout these examples, 5,000 cells were plated per well of a 96-well plate and drugs were added 1 day later. Cells were stained 1 to 3 days later with a saturated solution of methylene blue in 50% ethanol. Plates were rinsed and retained dye was quantified by spectrophotometry. Absorbance was normalized to DMSO and given as 1 or 100% for cell viability. Results are representative of at least two independent experiments. Statistical significance was assessed using the Student's t test. All commercially available chemicals were obtained from Cayman Chemicals unless otherwise noted.

The next assay concerns HT-1080 cells. The experiment in a line: Cytotoxicity (methylene blue cell viability), HT-1080. The class given is cell-based, human. Particulars: Homo sapiens. How it is done:
as §1, §2

Another assay has as its system NCI-H522 cells. The experiment in a line: Cytotoxicity (methylene blue cell viability), NCI-H522. It counts as cell-based, human. The settings on record: for IC50: Homo sapiens. How it is done: as §1, §2
Assay [2] has as its system NCI-H522, NCI-H522 GFP-SLC7A11 #8, NCI-H522 RV-GFP, HT-1080, NARF2 and MDA-MB 231 cell lines. The experiment in a line: Cytotoxicity screening across the tested cell lines. The class given is cell-based. Particulars: summary over all tested cell lines; read-out: IC50 values against the tested cell lines. How it is done: as §1, §2
The next assay deals with NCI-H522 RV-GFP cells. Put plainly: Cytotoxicity (methylene blue cell viability), NCI-H522 RV-GFP control clone. The class given is cell-based, human. The settings on record: Homo sapiens, NCI-H522; Table 1; control clone with RV-GFP tag; read-out: Half maximal inhibitory concentration (IC50), NCI-H522 Rv-GFP. The method, then:
as §1, §2

A further assay has as its system NARF2 cells. Put plainly: Cytotoxicity (methylene blue cell viability), NARF2. It counts as cell-based, human. The settings on record: Homo sapiens; Table 1; NARF2 osteosarcoma cells; read-out: Half maximal inhibitory concentration (IC50), NARF2. How it is done:
as §1, §2

For assay [3], the system named is NCI-H522 GFP-SLC7A11 #8 cells. The experiment in a line: Cytotoxicity (methylene blue cell viability), NCI-H522 clone overexpressing GFP-SLC7A11. It counts as cell-based, human. The settings on record: Homo sapiens; Table 1; NCI-H522 clone overexpressing GFP-tagged SLC7A11; read-out: Half maximal inhibitory concentration (IC50), NCI-H522 GFP-SCL7A11 #8. The method, then:
as §1, §2

The subject of assay [4] is NCI-H522 and HT-1080 cancer cell lines, WI38 and MEFs normal cell lines. Put plainly: Selective cytotoxicity assay at a single concentration. The class given is cell-based. Details: dose or concentration left out as unconfirmed. Particulars: NCI-H522, HT-1080, WI38, MEFs. How it is done: Overall, WI38 cells were the most tolerant to the treatment, whereas MEF cells were partially tolerant and relatively less sensitive than both NCI-H522 and HT-1080 cells. To determine cytotoxicity at a therapeutically more relevant concentration, cells were treated at a single concentration of […] (FIG. 12).
as §2, with “noted. Compound CETZOLE 1 and the analogs were synthesized as highlighted.” for “noted.”

Another assay relates to WI38 cells. Put plainly: Cytotoxicity on normal cell line WI38. Particulars: Homo sapiens, WI-38; Table 2; lung tissue fibroblast; read-out: Half maximal inhibitory concentration (IC50), Normal Cell Line WI38. The class given is cell-based, human. The method, then:
(§3) To determine cytotoxicity at a therapeutically more relevant concentration, cells were treated at a single concentration of […] (FIG. 12).
as §2

The test system of assay [5] is MEFs (Mouse Embryonic Fibroblasts). Put plainly: Cytotoxicity on normal cell line MEFs. The class given is cell-based. The settings on record: Fibroblast; Table 2; Mouse Embryonic Fibroblasts; read-out: Half maximal inhibitory concentration (IC50), Normal Cell Line Mefs. The method, then: as §3, §2
Where [6] appears, read: MDA-MB-231, Table 3, probes and negative controls, read-out: IC50, MDA-MB-231.
The mark [7] stands for this setting: HT-1080, Table 3, probes and negative controls, read-out: IC50, HT-1080.
The mark [8] stands for this setting: NCI-H522, Table 3, probes and negative controls, read-out: IC50, NCI-H522.
Setting [9] is: Table 1, MDA-MB-231 breast cancer cell line, read-out: Half maximal inhibitory concentration (IC50), MDA-MB-231.
[10] abbreviates: Table 1, HT-1080 fibrosarcoma cell line, read-out: Half maximal inhibitory concentration (IC50), HT-1080.
Setting [11] is: Table 1, NCI-H522 cancer cell line, read-out: Half maximal inhibitory concentration (IC50), NCI-H522.
The mark [12] stands for this setting: HT-1080, Table 2, read-out: Half maximal inhibitory concentration (IC50), Cancer Cell Line HT1080.
Where [13] appears, read: NCI-H522, Table 2, read-out: Half maximal inhibitory concentration (IC50), Cancer Cell Line NCI-H522.

In the case of `Cc1onc(C(=O)N2CCN(C(c3ccc(Cl)cc3)c3ccc(Cl)cc3)CC2)c1[N+](=O)[O-]` [ML210], the “competition of PPd-labelled protein bands by known ferroptosis inducers” value in [1] is “compete out the same protein bands”.
As for `CC1=C(c2csc(Br)n2)CCC1NC(=O)CCCC[C@@H]1SC[C@@H]2NC(=O)N[C@@H]21` (stereo partly drawn) [NPb, N-(3-(2-Bromothiazol-4-yl)-2-methylcyclopent-2-en-1-yl)-5-((3aS,4S,6aR)-2-oxohexahydro-1H-thieno[3,4-d]imidazol-4-yl)pentanamide], the IC50 in the assay with MDA-MB-231 cells (setting [6]), in the assay on HT-1080 cells (setting [7]) and with NCI-H522 cells (setting [8]) was over 20 µM each time.
In the case of `O=C(O)c1cc(/N=N/c2ccc(S(=O)(=O)Nc3ccccn3)cc2)ccc1O` [sulfasalazine], the “competition of PPd-labelled protein bands by known ferroptosis inducers” value in [1] is “did not show any significant competition”.
For `C#Cc1nc(C2=C(C)C(=O)/C(=N/OC(C)=O)C2)cs1` [compound 18], the IC50 is over 20 µM in [2]; 18.5 ± 1.7 µM in the assay with MDA-MB-231 cells (setting [9]); over 20 µM in the assay with HT-1080 cells (setting [10]); 11 ± 1.53 µM in the assay with NCI-H522 cells (setting [11]); over 20 µM in the assay on NCI-H522 RV-GFP cells; over 20 µM in the assay on NARF2 cells. Moreover, in assay [3], the IC50 is over 20 µM.
Consider `CCN(CC)c1ccc2cc(C(=O)NC3CCC(c4csc(Br)n4)=C3C)c(=O)oc2c1` (stereo not shown) [NPa, N-(3-(2-Bromothiazol-4-yl)-2-methylcyclopent-2-en-1-yl)-7-(diethylamino)-2-oxo-2H-chromene-3-carboxamide], for which the IC50 in the assay with MDA-MB-231 cells (setting [6]), in the assay with HT-1080 cells (setting [7]) and with NCI-H522 cells (setting [8]) was over 20 µM each time.
For the compound `C#Cc1nc(C2=C(C)C(O)/C(=N/O)C2)cs1` (stereo not shown) [compound 19, (E)-4-(2-Ethynylthiazol-4-yl)-2-hydroxy-3-methylcyclopent-3-en-1-one oxime], the IC50 in the assay with MDA-MB-231 cells (setting [9]) is 6.57 ± 0.5 µM; in the assay on HT-1080 cells (setting [10]), 5.77 ± 0.67 µM; with NCI-H522 cells (setting [11]), 4.68 ± 1.03 µM; with NCI-H522 RV-GFP cells, 5.55 ± 0.01 µM; in the assay with NARF2 cells it was over 20 µM; in assay [3], over 20 µM.
For the compound `C#Cc1nc(C2=C(C)C(OC(=O)CCC)/C(=N/OC(=O)CCC)C2)cs1` (stereo not shown) [compound 20c, (E)-5-((Butyryloxy)imino)-3-(2-ethynylthiazol-4-yl)-2-methylcyclopent-2-en-1-yl butyrate], the “cell death at a single concentration” value in [4] was “killed only the cancer cell lines NCI-H522 and HT-1080”. For the same compound, the IC50 in the assay on MDA-MB-231 cells (setting [9]) was 0.83 ± 0.15 µM; in the assay on HT-1080 cells (setting [12]), 0.19 ± 0.09 µM; with HT-1080 cells (setting [10]), 0.19 ± 0.09 µM; with NCI-H522 cells (setting [13]), 0.13 ± 0.09 µM; in the assay with NCI-H522 cells (setting [11]), 0.13 ± 0.09 µM; with NCI-H522 RV-GFP cells, 0.28 ± 0.13 µM. Moreover, the IC50 came out at 1.19 ± 0.3 µM in the assay with WI38 cells, 0.79 ± 0.04 µM in assay [5], 5.95 ± 1.8 µM in the assay with NARF2 cells and 1.93 ± 0.8 µM in [3].
`C#Cc1nc(C2=C(C)C(NC(=O)c3cc4ccc(N(CC)CC)cc4oc3=O)CC2)cs1` (stereo not shown) [PPa, 7-(Diethylamino)-N-(3-(2-ethynylthiazol-4-yl)-2-methylcyclopent-2-en-1-yl)-2-oxo-2H-chromene-3-carboxamide]: the IC50 with MDA-MB-231 cells (setting [6]) is 1.2 ± 1.03 µM; with HT-1080 cells (setting [7]) it was 4.58 ± 0.87 µM; in the assay with NCI-H522 cells (setting [8]), 4.56 ± 1.43 µM; with NCI-H522 cells (cell line not given, value matches NCI-H522 of Table 3, read-out: IC50 (moderate cytotoxicity of PPa)), 4.56 ± 1.43 µM.
As for `C#Cc1nc(C2=C(C)C(OC(=O)CC)/C(=N/OC(=O)CC)C2)cs1` (stereo not shown) [compound 20b, (E)-3-(2-Ethynylthiazol-4-yl)-2-methyl-5-((propionyloxy)imino)cyclopent-2-en-1-yl propionate], in assay [4], the “cell death at a single concentration” value was “killed only the cancer cell lines NCI-H522 and HT-1080”. In addition, the IC50 with MDA-MB-231 cells (setting [9]) turned out to be 0.18 ± 0.03 µM; with HT-1080 cells (setting [12]), 0.15 ± 0.02 µM; in the assay on HT-1080 cells (setting [10]) it was 0.15 ± 0.02 µM; in the assay with NCI-H522 cells (setting [13]), 0.12 ± 0.06 µM; with NCI-H522 cells (setting [11]), 0.12 ± 0.06 µM; in the assay on NCI-H522 RV-GFP cells it was 0.59 ± 0.22 µM. The IC50 in the assay with WI38 cells was 2.52 ± 0.92 µM; in [5], 0.28 ± 0.04 µM; in the assay on NARF2 cells, 13.4 ± 3.3 µM; in assay [3], 2.06 ± 0.54 µM.
As for `C#CCCC(=O)Nc1ccc(C(=O)c2ccc(NC(=O)CO/N=C3\CC(c4csc(Br)n4)=C(C)C3O)cc2)cc1` (stereo not shown) [NPe, (E)-N-(4-(4-(2-(((4-(2-Bromothiazol-4-yl)-2-hydroxy-3-methylcyclopent-3-en-1-ylidene)amino)oxy)acetamido)benzoyl)phenyl)pent-4-ynamide], the IC50 in the assay with MDA-MB-231 cells (setting [6]), in the assay on HT-1080 cells (setting [7]) and in the assay on NCI-H522 cells (setting [8]) was over 20 µM throughout.
Take `C#Cc1nc(C2=C(C)C(O)/C(=N\OCc3ccccc3)C2)cs1` (stereo not shown) [compound 21, (Z)-4-(2-Ethynylthiazol-4-yl)-2-hydroxy-3-methylcyclopent-3-en-1-one O-benzyl oxime]: the IC50 in the assay with MDA-MB-231 cells (setting [9]) is 13.4 ± 5.3 µM; in the assay on HT-1080 cells (setting [10]), 0.93 ± 0.12 µM; in the assay on NCI-H522 cells (setting [11]) it was 1.18 ± 0.8 µM; in the assay on NCI-H522 RV-GFP cells, 3.02 ± 1.7 µM; with NARF2 cells, over 20 µM; in assay [3], 2.17 ± 1.5 µM.
In the case of `CC1=C(c2csc(Br)n2)CCC1O` (stereo not shown) [compound 13, 3-(2-Bromothiazol-4-yl)-2-methylcyclopent-2-en-1-ol], the IC50 in the assay with MDA-MB-231 cells (setting [6]), in the assay on HT-1080 cells (setting [7]) and with NCI-H522 cells (setting [8]) was over 20 µM each time.
`C#Cc1nc(C2=C(C)C(NC(=O)CCCC[C@@H]3SC[C@@H]4NC(=O)N[C@@H]43)CC2)cs1` (stereo partly drawn) [PPb, N-(3-(2-Ethynylthiazol-4-yl)-2-methylcyclopent-2-en-1-yl)-5-((3aS,4S,6aR)-2-oxohexahydro-1H-thieno[3,4-d]imidazol-4-yl)pentanamide]: the IC50 was over 20 µM in the assay on MDA-MB-231 cells (setting [6]); 7.91 ± 1.9 µM in the assay with HT-1080 cells (setting [7]); 17.9 ± 3.98 µM in the assay with NCI-H522 cells (setting [8]); 17.9 ± 3.98 µM in the assay on NCI-H522 cells (NCI-H522, unit inferred, read-out: IC50 on NCI-H522 cell line). The “activity relative to CETZOLE 1” value with NCI-H522 cells (NCI-H522 cell line) is “five-fold less active”.
As for `C#CCO/N=C1\CC(c2csc(Br)n2)=C(C)C1O` (stereo not shown) [NPd, 4-(2-Bromothiazol-4-yl)-2-hydroxy-3-methylcyclopent-3-en-1-one O-prop-2-yn-1-yl oxime], the IC50 in the assay with MDA-MB-231 cells (setting [6]), in the assay with HT-1080 cells (setting [7]) and with NCI-H522 cells (setting [8]) was over 20 µM in each case.
